“And” between values parts separate entries of the source, which are not always exact repeats. Equal entries are not always repeated. Toxic doses and inconclusive results are not listed. No stated cut-off is given here; in the data, active means T/C of 150% or more; inactive means T/C below 125%.
Test system: L1210 leukemia ip in BDF1 mice, survival T/C
Test: NCI In Vivo Anticancer Drug Screen. Data for tumor model L1210 Leukemia (intraperitoneal) in B6D2F1 (BDF1) mice
Details: endpoint: mean survival time, higher = longer survival
Procedure, shortened: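 Survival endpoint. Drug-treated group vs vehicle group, expressed as T divided by C. Tumor passaged by transplantation.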

[1] = dose: 100.0 mg/kg/injection, schedule: Q01DX009 (ip), vehicle: saline
[2] = dose: 100.0 mg/kg/injection, schedule: Q04DX003 (ip), vehicle: saline
[3] = dose: 200.0 mg/kg/injection, schedule: Q01DX009 (ip), vehicle: saline
[4] = dose: 200.0 mg/kg/injection, schedule: Q04DX003 (ip), vehicle: saline
[5] = dose: 100.0 mg/kg/injection, schedule: Q01DX001 (ip), vehicle: saline
[6] = dose: 100.0 mg/kg/injection, schedule: Q04DX003 (ip), vehicle: Klucel (hydroxypropylcellulose) (HPC)
[7] = dose: 200.0 mg/kg/injection, schedule: Q01DX001 (ip), vehicle: saline
[8] = dose: 200.0 mg/kg/injection, schedule: Q04DX003 (ip), vehicle: Klucel (hydroxypropylcellulose) (HPC)
[9] = dose: 400.0 mg/kg/injection, schedule: Q04DX003 (ip), vehicle: Klucel (hydroxypropylcellulose) (HPC)
[10] = dose: 100.0 mg/kg/injection, schedule: Q01DX009 (ip), vehicle: saline with Tween-80
[11] = dose: 100.0 mg/kg/injection, schedule: Q04DX003 (ip), vehicle: saline with Tween-80
[12] = dose: 200.0 mg/kg/injection, schedule: Q01DX009 (ip), vehicle: saline with Tween-80
[13] = dose: 200.0 mg/kg/injection, schedule: Q04DX003 (ip), vehicle: saline with Tween-80
[14] = dose: 400.0 mg/kg/injection, schedule: Q04DX003 (ip), vehicle: saline with Tween-80
[15] = dose: 100.0 mg/kg/injection, schedule: Q04DX002 (ip), vehicle: Klucel (hydroxypropylcellulose) (HPC)
[16] = dose: 200.0 mg/kg/injection, schedule: Q04DX002 (ip), vehicle: Klucel (hydroxypropylcellulose) (HPC)
[17] = dose: 400.0 mg/kg/injection, schedule: Q04DX002 (ip), vehicle: Klucel (hydroxypropylcellulose) (HPC)
[18] = dose: 100.0 mg/kg/injection, schedule: Q01DX009 (ip), vehicle: Klucel (hydroxypropylcellulose) (HPC)
[19] = dose: 200.0 mg/kg/injection, schedule: Q01DX009 (ip), vehicle: Klucel (hydroxypropylcellulose) (HPC)

Measured: T/C

CCOC(=O)c1ncc2cnccn12
inactive: dose: 50.0 mg/kg/injection, schedule: Q01DX009 (ip), vehicle: saline 92 % of control | [1] 120 % of control | [2] 107 % of control | [3] 94 % of control | [4] 104 % of control

O=C1NC(=O)c2cc([N+](=O)[O-])cc3cccc1c23
inactive: [5] 94 % of control | dose: 100.0 mg/kg/injection, schedule: Q01DX009 (ip), vehicle: saline sonified 90 % of control | [6] 97 % of control | [7] 97 % of control | dose: 200.0 mg/kg/injection, schedule: Q01DX009 (ip), vehicle: saline sonified 95 % of control | [8] 87 % of control | dose: 400.0 mg/kg/injection, schedule: Q01DX001 (ip), vehicle: saline 90 % of control | dose: 400.0 mg/kg/injection, schedule: Q01DX009 (ip), vehicle: saline sonified 88 % of control | [9] 86 % of control

O=C(c1cccs1)c1cccs1
inactive: dose: 50.0 mg/kg/injection, schedule: Q01DX009 (ip), vehicle: saline with Tween-80 98 % of control | [10] 100 % of control | [11] 102 % of control | [12] 94 % of control | [13] 107 % of control | dose: 400.0 mg/kg/injection, schedule: Q01DX009 (ip), vehicle: saline with Tween-80 96 % of control | [14] 101 % of control

CC(=O)c1ccc2ccc3ccccc3c2c1
inactive: dose: 75.0 mg/kg/injection, schedule: Q01DX009 (ip), vehicle: saline 98 % of control | [2] 98 % of control | dose: 150.0 mg/kg/injection, schedule: Q01DX009 (ip), vehicle: saline 98 % of control | [4] 101 % of control | dose: 300.0 mg/kg/injection, schedule: Q01DX009 (ip), vehicle: saline 95 % of control | dose: 400.0 mg/kg/injection, schedule: Q04DX003 (ip), vehicle: saline 101 % of control

c1ccc([C@H]2N[C@H]2c2ccccc2)cc1
inactive: [6] 96 % of control | [8] 95 % of control | [9] 98 % of control

CN1CCC23c4c5ccc(O)c4OC2C(=O)CCC3C1C5 (centres undefined)
inactive: dose: 75.0 mg/kg/injection, schedule: Q01DX001 (ip), vehicle: saline 95 % of control

C1=CC2C1C1(Cc3ccccc3)N=NC2(Cc2ccccc2)C2C=CC21 (centres undefined)
inactive: [15] 97 % of control | [16] 94 % of control | [17] 87 % of control

CC1OCCCCO1
inactive: dose: 50.0 mg/kg/injection, schedule: Q01DX001 (ip), vehicle: saline 106 % of control | [5] 102 % of control | [1] 96 % of control and 112 % of control | dose: 100.0 mg/kg/injection, schedule: Q04DX002 (ip), vehicle: saline 108 % of control and 86 % of control | [7] 103 % of control | [3] 102 % of control and 108 % of control | dose: 200.0 mg/kg/injection, schedule: Q04DX002 (ip), vehicle: saline 93 % of control and 100 % of control | dose: 400.0 mg/kg/injection, schedule: Q01DX009 (ip), vehicle: saline 98 % of control and 112 % of control | dose: 400.0 mg/kg/injection, schedule: Q04DX002 (ip), vehicle: saline 93 % of control and 95 % of control

Cc1cc(OC(=O)Nc2cc(C(F)(F)F)ccc2Cl)ccc1Cl
inactive: [18] 98 % of control | [19] 104 % of control | dose: 400.0 mg/kg/injection, schedule: Q01DX009 (ip), vehicle: Klucel (hydroxypropylcellulose) (HPC) 95 % of control

O=C(O)c1ccccc1C(=O)c1ccccc1C(=O)O
inactive: [11] 102 % of control | [13] 98 % of control | [14] 102 % of control

COCCOC(C)C(=O)C(O)S(=O)(=O)O (centres undefined)
inactive: dose: 500.0 mg/kg/injection, schedule: Q01DX Z (oral), vehicle: saline 86 % of control | dose: 1000.0 mg/kg/injection, schedule: Q01DX Z (oral), vehicle: saline 87 % of control

Cc1ccc(NC(=O)c2ccc(Cl)cc2)c(C)c1
inactive: [18] 94 % of control | [6] 106 % of control | [19] 100 % of control | [8] 96 % of control | [9] 98 % of control

CNC(=O)/C(=C\c1ccccc1)NC(C)=O
inactive: dose: 100.0 mg/kg/injection, schedule: Q01DX001 (ip), vehicle: saline with Tween-80 91 % of control | dose: 200.0 mg/kg/injection, schedule: Q01DX001 (ip), vehicle: saline with Tween-80 107 % of control | dose: 400.0 mg/kg/injection, schedule: Q01DX001 (ip), vehicle: saline with Tween-80 100 % of control

O=C(/C=C/c1ccccc1)Sc1ccccc1
inactive: [15] 88 % of control | [16] 88 % of control | [17] 107 % of control

CCC(C)(C)NC1=C(Cl)C(=O)c2ccccc2C1=O
inactive: dose: 6.25 mg/kg/injection, schedule: Q01DX001 (ip), vehicle: saline with Tween-80 95 % of control | dose: 12.5 mg/kg/injection, schedule: Q01DX001 (ip), vehicle: saline with Tween-80 106 % of control

C#CCN(CCCC)CCCC
inactive: dose: 100.0 mg/kg/injection, schedule: Q04DX002 (ip), vehicle: saline with Tween-80 95 % of control | dose: 200.0 mg/kg/injection, schedule: Q04DX002 (ip), vehicle: saline with Tween-80 100 % of control

COc1ccc(CCCCI)cc1
inactive: dose: 100.0 mg/kg/injection, schedule: Q01DX001 (ip), vehicle: acetone 98 % of control | dose: 100.0 mg/kg/injection, schedule: Q04DX003 (ip), vehicle: acetone 93 % of control | dose: 200.0 mg/kg/injection, schedule: Q01DX001 (ip), vehicle: acetone 95 % of control | dose: 200.0 mg/kg/injection, schedule: Q04DX003 (ip), vehicle: acetone 94 % of control | dose: 400.0 mg/kg/injection, schedule: Q01DX001 (ip), vehicle: acetone 115 % of control | dose: 400.0 mg/kg/injection, schedule: Q04DX003 (ip), vehicle: acetone 95 % of control

COc1ccc(CC2C(=O)NC(C)C(=O)N(C)C3C(=O)N(C)C(Cc4ccc(O)c(c4)Oc4ccc(cc4)C3O)C(=O)NC(C)C(=O)NC(C)C(=O)N2C)cc1 (centres undefined) (tested in a mixture with another compound)
inactive: dose: 0.25 mg/kg/injection, schedule: Q01DX009 (ip), vehicle: saline 112 % of control | dose: 0.5 mg/kg/injection, schedule: Q01DX009 (ip), vehicle: carboxymethylcellulose (CMC) 114 % of control | dose: 0.5 mg/kg/injection, schedule: Q01DX009 (ip), vehicle: saline 122 % of control | dose: 1.0 mg/kg/injection, schedule: Q01DX009 (ip), vehicle: carboxymethylcellulose (CMC) 115 % of control | dose: 1.0 mg/kg/injection, schedule: Q01DX009 (ip), vehicle: saline 120 % of control | dose: 2.0 mg/kg/injection, schedule: Q01DX009 (ip), vehicle: carboxymethylcellulose (CMC) 117 % of control | dose: 2.0 mg/kg/injection, schedule: Q01DX009 (ip), vehicle: saline 117 % of control

Cc1cc(Cl)ccc1NC(=O)c1ccc([N+](=O)[O-])cc1
inactive: [10] 92 % of control | [11] 92 % of control | [12] 86 % of control | [13] 93 % of control | [14] 92 % of control

— PubChem BioAssay AID248 (DTP/NCI, 2004)
